The subject of series [1] is HMLER-shEcad cells. The settings on record: 72 h incubation, cited from earlier work.
Series [2] relates to HMLER cells. The settings on record: 72 h incubation, cited from earlier work.
For series [3], the system named is HMLER-shEcad mammospheres. Details: method as in PMID 26806362, PMID 31588328, PMID 28932846, PMID 31209956. The settings on record: 120 h incubation, ref [14],[37],[39],[40], read-out: Mammosphere IC50; cited from earlier work.
Series [4] deals with HMLER cells. The series can be described thus: MTT cytotoxicity assay, bulk breast cancer cells. The settings on record: 72 h incubation. It counts as cell-based, human. As for the experimental part: (§1) Exponentially growing cells were seeded at a density of approximately 5 × 10^3 cells per well in 96-well flat-bottomed microplates, and allowed to attach for 24 h prior to the addition of compounds. […] Stock solutions of the compounds were prepared as 10 mM DMSO solutions, and diluted using cell media. […] After 72 h, 20 μL of MTT (4 mg mL^−1 in PBS) was added to each well, and the plates were incubated for an additional 4 h at 37 °C. The media/MTT mixture was eliminated, and DMSO (100 μL per well) was added to dissolve the formazan precipitates. […] Absorbance values were normalised to (DMSO-containing) control wells, and plotted as concentration of compound versus % cell viability. IC50 values were interpolated from the resulting dose-dependent curves.
Background: Tetrazolium dyes change colour on reduction, which living cells bring about.

In series [5] the test system is HMLER-shEcad cells. Put plainly: Intracellular ROS assay (DCFH-DA). It counts as cell-based, human. The settings on record: 2 × IC50 value. As for the experimental part:
HMLER-shEcad cells (5 × 10^3) were seeded in each well of a 96-well plate. […] The intracellular ROS level was determined via measurement of the fluorescence of the solutions in each well at 529 nm (λex = 504 nm).

The subject of series [6] is HMLER-shEcad cells. Put plainly: MTT cytotoxicity assay, breast CSCs. In kind it is cell-based, human. The settings on record: 72 h incubation. As for the experimental part:
as §1

Series [7] concerns HMLER-shEcad mammospheres. The series can be described thus: Mammosphere viability assay (TOX8). In kind it is cell-based, human. The settings on record: TOX8, 120 h incubation. As for the experimental part: HMLER-shEcad cells (5 × 10^3) were plated in ultralow-attachment 96-well plates (Corning) and incubated in MEGM supplemented with B27 (Invitrogen), 20 ng mL^−1 EGF, and 4 μg mL^−1 heparin (Sigma), for 5 days. Studies were also conducted in the presence of 1–3, cisplatin and salinomycin (0–133 µM). Mammospheres treated with 1–3, cisplatin, and salinomycin (0.5 µM, 5 days) were counted and imaged, using an inverted microscope. The viability of the mammospheres was determined via the addition of a resazurin-based reagent, TOX8 (Sigma). After incubation for 16 h, the fluorescence of the solutions was read at 590 nm (λex = 560 nm). Viable mammospheres reduce the amount of the oxidised TOX8 form (blue) and, concurrently, increase the amount of the fluorescent TOX8 intermediate (red), indicating the degree of mammosphere cytotoxicity caused by the test compound. Fluorescence values were normalised to DMSO-containing controls, and plotted as concentration of test compound versus % mammospheres viability. IC50 values were interpolated from the resulting dose-dependent curves. The reported IC50 values are the average of two independent experiments, each consisting of two replicates per concentration level (n = 4).

In another series the test system is BEAS-2B cells. The series can be described thus: MTT cytotoxicity assay, non-cancerous bronchial epithelium cells. It counts as cell-based. The settings on record: 72 h incubation. As for the experimental part: Exponentially growing cells were seeded at a density of approximately 5 × 10^3 cells per well in 96-well flat-bottomed microplates, and allowed to attach for 24 h prior to the addition of compounds. Various concentrations of the test compounds (0.19–100 μM) were added, and the plates were incubated for 72 h at 37 °C (total volume 200 μL). Stock solutions of the compounds were prepared as 10 mM DMSO solutions, and diluted using cell media. The final concentration of DMSO in each well was ≤1 %. After 72 h, 20 μL of MTT (4 mg mL^−1 in PBS) was added to each well, and the plates were incubated for an additional 4 h at 37 °C. The media/MTT mixture was eliminated, and DMSO (100 μL per well) was added to dissolve the formazan precipitates. The optical density was measured at 550 nm, using a 96-well multiscanner autoreader. Absorbance values were normalised to (DMSO-containing) control wells, and plotted as concentration of compound versus % cell viability. IC50 values were interpolated from the resulting dose-dependent curves.

A short description of series [8]: Water–octanol partition coefficient (LogP), shake-flask method and ICP-MS. It counts as physicochemical. The settings on record: water/1-octanol, room temperature, 24 h. How it is done:
The 1-octanol used in this experiment was pre-saturated with water. […] The tube was shaken at room temperature for 24 h. The two phases were separated via centrifugation, and the copper content in the water phase was determined via ICP-MS.

Setting [9] is: ref [1,2] of the SI (Eskandari et al. 2016; Eskandari, Suntharalingam 2019).

Like-named read-outs stand apart in the source and are kept apart here. Bounds are passed on as bounds.

As a reminder, the IC50 is the midpoint of a concentration-inhibition curve. Regarding `N.N.[Cl][Pt][Cl]` [cisplatin], the concentration for half-maximal inhibition (IC50) in the series on HMLER-shEcad cells [1] (ref [14],[37],[39],[40]) was 5.65 ± 0.3 µM; with HMLER cells [2] (ref [14],[37],[39],[40]), 2.57 ± 0.02 µM; in series [3], 13.5 ± 2.34 µM.

`O=C([O-])Cc1ccccc1Nc1c(Cl)cccc1Cl.[Cu+].c1ccc(P(c2ccccc2)c2ccccc2)cc1.c1ccc(P(c2ccccc2)c2ccccc2)cc1` [compound 1, [Cu^I(diclofenac)(PPh3)2]]: the IC50 with HMLER cells [4] was 2.42 ± 0.1 µM; with HMLER-shEcad cells [6], 4.61 ± 0.18 µM; in [7], 18.2 ± 2.02 µM; with BEAS-2B cells, 4.32 ± 0.13 µM. Also, the “Increase in ROS levels compared to untreated control cells” value in the series with HMLER-shEcad cells [5] (1 h exposure) turned out to be 76%. Further, the “Change of intracellular ROS status” value with HMLER-shEcad cells [5] (exposure beyond 1 h (3–24 h)) is “did not markedly alter”.

For `COc1ccc2cc(C(C)C(=O)[O-])ccc2c1.[Cu+].c1ccc(P(c2ccccc2)c2ccccc2)cc1.c1ccc(P(c2ccccc2)c2ccccc2)cc1` [compound 2, [Cu^I(naproxen)(PPh3)2]], the concentration for half-maximal inhibition (IC50) in the series with HMLER cells [4] amounted to 2.36 ± 0.03 µM; in the series on HMLER-shEcad cells [6] it was 4.46 ± 0.08 µM; in [7], 11.8 ± 0.7 µM; in the series on BEAS-2B cells it was 4.11 ± 0.001 µM. The “Increase in ROS levels” value with HMLER-shEcad cells [5] (16 h exposure) is 41%; in the series on HMLER-shEcad cells [5] (24 h exposure), 32%.

One may read the LogP as a log measure of how a compound divides between an organic and an aqueous phase. High values mean higher lipophilicity, low ones lower lipophilicity. As to `O=C([O-])c1ccccc1O.[Cu+].c1ccc(P(c2ccccc2)c2ccccc2)cc1.c1ccc(P(c2ccccc2)c2ccccc2)cc1` [compound 3, [Cu^I(salicylate)(PPh3)2]], the IC50 with HMLER cells [4] came to 2.13 ± 0.002 µM; in the series with HMLER-shEcad cells [6], 4.55 ± 0.001 µM; in [7], 13.6 ± 0.74 µM; in the series with BEAS-2B cells, 3.53 ± 0.21 µM. The “Increase in ROS levels” value came out at 191% in the series on HMLER-shEcad cells [5] (16 h exposure) and 75% in the series with HMLER-shEcad cells [5] (24 h exposure). The compound further gave a LogP in series [8] of 0.82 ± 0.002.

As to `O=C(O)Cc1ccccc1Nc1c(Cl)cccc1Cl` [diclofenac], the results for the IC50 in the series with HMLER-shEcad cells [1] (setting [9]) and in the series with HMLER cells [2] (setting [9]) were 54.74 ± 0.23 µM and 69.5 ± 8.7 µM, respectively.

`COc1ccc2cc([C@H](C)C(=O)O)ccc2c1` [naproxen]: the half-inhibitory concentration (IC50) in the series with HMLER-shEcad cells [1] (setting [9]) and in the series on HMLER cells [2] (setting [9]) was more than 100 µM in each case.

For the compound `CC[C@@H](C(=O)[C@@H](C)[C@@H](O)[C@H](C)[C@@H]1O[C@@H]([C@@H](CC)C(=O)O)CC[C@@H]1C)[C@H]1O[C@]2(C=C[C@@H](O)[C@]3(CC[C@@](C)([C@H]4CC[C@](O)(CC)[C@H](C)O4)O3)O2)[C@H](C)C[C@@H]1C` [salinomycin], the values for the IC50 (in the series on HMLER-shEcad cells [1] (ref [14],[37],[39],[40]); in the series on HMLER cells [2] (ref [14],[37],[39],[40]); in series [3]) were 4.23 ± 0.35 µM, 11.4 ± 0.42 µM and 18.5 ± 1.5 µM, respectively.

The values above are taken from PMC10489748, “The Anti-Breast Cancer Stem Cell Potency of Copper(I)-Non-Steroidal Anti-Inflammatory Drug Complexes” (Molecules, 2023).
